Measurements published in patent US20250170141A1, “MRGPRX2 MODULATORS AND RELATED METHODS OF TREATMENT” (Escient Pharmaceuticals, Inc., priority 2023, published 2025).

Biological target: T1, human MRGPRX2 (Homo sapiens, UniProt Q96LB1)
T1 construct: expressed in transfected cells; host or cells: CHO cells, stably transfected (G418 and Hygromycin B selection)
T1 sequence (Q96LB1 1-330): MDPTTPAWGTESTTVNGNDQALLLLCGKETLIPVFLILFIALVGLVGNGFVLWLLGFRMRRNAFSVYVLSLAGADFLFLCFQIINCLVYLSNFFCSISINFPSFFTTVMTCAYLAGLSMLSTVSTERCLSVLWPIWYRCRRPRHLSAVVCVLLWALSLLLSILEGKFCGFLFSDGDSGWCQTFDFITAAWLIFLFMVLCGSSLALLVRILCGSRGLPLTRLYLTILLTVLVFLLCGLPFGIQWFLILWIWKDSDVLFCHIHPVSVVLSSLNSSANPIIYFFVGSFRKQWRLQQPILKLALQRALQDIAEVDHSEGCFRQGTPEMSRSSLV
Experiment: MRGPRX2 activity: IP-One Gq HTRF assay in CHO cells, antagonism versus 0.3 uM Cortistatin-14
Type: cell-based
Settings: versus 0.3 uM Cortistatin-14 agonist, CHO cells expressing human MRGPRX2, read-out: MRGPRX2 Antagonist Activity
How it was run: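 Antagonist IC50 was derived from the HTRF IP-1 signal after co-addition of compounds (10 points, top 30 uM, 3-fold steps) and 0.3 μM Cortistatin-14 agonist to human MRGPRX2-expressing CHO cells. Assay buffer contained 50 mM LiCl, pH 8; plates sat 1 h at 37 °C, then 1 h at room temperature.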

Row | SMILES | IC50 [nM]
1 | O=S1(=O)N=C(NCc2ccccc2F)Nc2c1ccc(F)c2Oc1ccccc1Cl [Compound 1-2, 5-(2-chlorophenoxy)-6-fluoro-3-((2-fluorobenzyl)amino)-4H-benzo[e][1,2,4]thiadiazine 1,1-dioxide] | < 100
2 | O=S1(=O)N=C(NCc2cccnc2F)Nc2c1ccc(F)c2Oc1ccccc1Cl [Compound 2-5, 5-(2-chlorophenoxy)-6-fluoro-3-(((2-fluoropyridin-3-yl)methyl)amino)-4H-benzo[e][1,2,4]thiadiazine 1,1-dioxide] | 100 to 500
3 | Cc1c(F)cccc1CNC1=NS(=O)(=O)c2ccc(F)c(C(C)c3ccccc3F)c2N1 (centres unmarked) [Compound 9-6, 6-fluoro-3-((3-fluoro-2-methylbenzyl)amino)-5-(1-(2-fluorophenyl)ethyl)-4H-benzo[e][1,2,4]thiadiazine 1,1-dioxide] | < 100
4 | COc1cccc(CNC2=NS(=O)(=O)c3ccc(F)c(Oc4ccccc4Cl)c3N2)c1 [Compound 1-3, 5-(2-chlorophenoxy)-6-fluoro-3-((3-methoxybenzyl)amino)-4H-benzo[e][1,2,4]thiadiazine 1,1-dioxide] | 100 to 500
5 | CC(c1ccccc1F)c1c(F)ccc2c1NC(NCc1ccc(F)c(Cl)c1)=NS2(=O)=O (centres unmarked) [Compound 7-7, 3-((3-chloro-4-fluorobenzyl)amino)-6-fluoro-5-(1-(2-fluorophenyl)ethyl)-4H-benzo[e][1,2,4]thiadiazine 1,1-dioxide] | < 100
6 | O=S1(=O)N=C(NCc2ncccc2F)Nc2c1ccc(F)c2Oc1cccc(F)c1F [Compound 1-40, 5-(2,3-difluorophenoxy)-6-fluoro-3-(((3-fluoropyridin-2-yl)methyl)amino)-4H-benzo[e][1,2,4]thiadiazine 1,1-dioxide] | 100 to 500
7 | O=S1(=O)N=C(NCc2ccccc2F)Nc2c(Cc3ccc(F)cc3)cccc21 [Compound 6-14, 5-(4-fluorobenzyl)-3-((2-fluorobenzyl)amino)-4H-benzo[e][1,2,4]thiadiazine 1,1-dioxide] | < 100
8 | N#Cc1ccc2c(c1Oc1ccccc1Cl)NC(NCc1ncccc1F)=NS2(=O)=O [Compound 3-2, 5-(2-chlorophenoxy)-3-(((3-fluoropyridin-2-yl)methyl)amino)-4H-benzo[e][1,2,4]thiadiazine-6-carbonitrile 1,1-dioxide] | < 100
9 | Cc1cccnc1CNC1=NS(=O)(=O)c2ccc(F)c(Oc3ccccc3Cl)c2N1 [Compound 1-32, 5-(2-chlorophenoxy)-6-fluoro-3-(((3-methylpyridin-2-yl)methyl)amino)-4H-benzo[e][1,2,4]thiadiazine 1,1-dioxide] | 100 to 500
10 | Cc1cccc(Cc2cccc3c2NC(NCc2ccccc2F)=NS3(=O)=O)c1 [Compound 6-10, 3-((2-fluorobenzyl)amino)-5-(3-methylbenzyl)-4H-benzo[e][1,2,4]thiadiazine 1,1-dioxide] | < 100
11 | O=S1(=O)N=C(NCc2ncccc2F)Nc2c1ccc(Cl)c2Oc1ccccc1Cl [Compound 1-43, 6-chloro-5-(2-chlorophenoxy)-3-(((3-fluoropyridin-2-yl)methyl)amino)-4H-benzo[e][1,2,4]thiadiazine 1,1-dioxide] | < 100
12 | N#Cc1cccc(Cc2cccc3c2NC(NCc2ccccc2F)=NS3(=O)=O)c1 [Compound 6-12, 3-((3-((2-fluorobenzyl)amino)-1,1-dioxido-4H-benzo[e][1,2,4]thiadiazin-5-yl)methyl)benzonitrile] | < 100
13 | O=S1(=O)N=C(NCc2ncccc2F)Nc2c1ccc(Cl)c2Oc1cccc(F)c1Cl [Compound 1-51, 6-chloro-5-(2-chloro-3-fluorophenoxy)-3-(((3-fluoropyridin-2-yl)methyl)amino)-4H-benzo[e][1,2,4]thiadiazine 1,1-dioxide] | < 100
14 | CC(C)(C)c1cccc(Cl)c1Oc1c(F)ccc2c1NC(NCc1ncccc1F)=NS2(=O)=O [Compound 1-36, 5-(2-(tert-butyl)-6-chlorophenoxy)-6-fluoro-3-(((3-fluoropyridin-2-yl)methyl)amino)-4H-benzo[e][1,2,4]thiadiazine 1,1-dioxide] | < 100
15 | O=S1(=O)N=C(NCc2cccc3ccccc23)Nc2c1ccc(F)c2Oc1ccccc1Cl [Compound 2-6, 5-(2-chlorophenoxy)-6-fluoro-3-((naphthalen-1-ylmethyl)amino)-4H-benzo[e][1,2,4]thiadiazine 1,1-dioxide] | 100 to 500
16 | O=S1(=O)N=C(NCc2ccccc2F)Nc2c(Cc3ccccc3)cccc21 [Compound 6-3, 5-benzyl-3-((2-fluorobenzyl)amino)-4H-benzo[e][1,2,4]thiadiazine 1,1-dioxide] | < 100
17 | O=S1(=O)N=C(NCc2ncccc2F)Nc2c1ccc(F)c2Oc1ccccc1-c1ccccc1 [Compound 1-35, 5-([1,1′-biphenyl]-2-yloxy)-6-fluoro-3-(((3-fluoropyridin-2-yl)methyl)amino)-4H-benzo[e][1,2,4]thiadiazine 1,1-dioxide] | 1000 to 2500
18 | COc1cccnc1CNC1=NS(=O)(=O)c2cc(F)c(F)c(Oc3ccccc3Cl)c2N1 [Compound 1-7, 5-(2-chlorophenoxy)-6,7-difluoro-3-(((3-methoxypyridin-2-yl)methyl)amino)-4H-benzo[e][1,2,4]thiadiazine 1,1-dioxide] | 100 to 500
19 | O=S1(=O)N=C(NCc2ncccc2F)Nc2c1cc(Cl)c(F)c2Oc1ccccc1Cl [Compound 1-47, 7-chloro-5-(2-chlorophenoxy)-6-fluoro-3-(((3-fluoropyridin-2-yl)methyl)amino)-4H-benzo[e][1,2,4]thiadiazine 1,1-dioxide] | 501 to 1000
20 | COc1ccccc1CNC1=NS(=O)(=O)c2ccc(F)c(Oc3ccccc3Cl)c2N1 [Compound 1-31, 5-(2-chlorophenoxy)-6-fluoro-3-((2-methoxybenzyl)amino)-4H-benzo[e][1,2,4]thiadiazine 1,1-dioxide] | 100 to 500

Now from value to compound:

Row | IC50 [nM] | SMILES
21 | < 100 | COc1cccc(C(C)c2c(F)ccc3c2NC(NCc2cccc(F)c2)=NS3(=O)=O)n1 (centres unmarked) [Compound 22-6, 6-fluoro-3-((3-fluorobenzyl)amino)-5-(1-(6-methoxypyridin-2-yl)ethyl)-4H-benzo[e][1,2,4]thiadiazine 1,1-dioxide]
22 | 1000 to 2500 | COCCNC1=NS(=O)(=O)c2cccc(C(=O)c3ccccc3Cl)c2N1 [Compound 16-3, (2-chlorophenyl)(3-((2-methoxyethyl)amino)-1,1-dioxido-4H-benzo[e][1,2,4]thiadiazin-5-yl)methanone]
23 | < 100 | CC(c1ccc(F)c(C#N)c1)c1c(F)ccc2c1NC(NCc1cccc(F)c1)=NS2(=O)=O (centres unmarked) [Compound 22-27, 2-fluoro-5-(1-(6-fluoro-3-((3-fluorobenzyl)amino)-1,1-dioxido-4H-benzo[e][1,2,4]thiadiazin-5-yl)ethyl)benzonitrile]
24 | < 100 | CC(c1nccs1)c1c(F)ccc2c1NC(NCc1cccc(F)c1)=NS2(=O)=O (centres unmarked) [Compound 22-11, 6-fluoro-3-((3-fluorobenzyl)amino)-5-(1-(thiazol-2-yl)ethyl)-4H-benzo[e][1,2,4]thiadiazine 1,1-dioxide]
25 | < 100 | Cc1ccccc1C(C)c1c(F)ccc2c1NC(NCc1cccc(F)c1)=NS2(=O)=O (centres unmarked) [Compound 22-2, 6-fluoro-3-((3-fluorobenzyl)amino)-5-(1-(o-tolyl)ethyl)-4H-benzo[e][1,2,4]thiadiazine 1,1-dioxide]
26 | < 100 | CCC(c1ccccc1F)c1c(F)ccc2c1NC(NCc1ncccc1F)=NS2(=O)=O (centres unmarked) [Compound 20-1, 6-fluoro-5-(1-(2-fluorophenyl)propyl)-3-(((3-fluoropyridin-2-yl)methyl)amino)-4H-benzo[e][1,2,4]thiadiazine 1,1-dioxide]
27 | < 100 | Cc1ccccc1CNC1=NS(=O)(=O)c2cccc(Cc3ccccc3Cl)c2N1 [Compound 12-19, 5-(2-chlorobenzyl)-3-((2-methylbenzyl)amino)-4H-benzo[e][1,2,4]thiadiazine 1,1-dioxide]
28 | < 100 | CC(c1ccccc1F)c1c(F)ccc2c1NC(NCc1cccc(Cl)c1F)=NS2(=O)=O (centres unmarked) [Compound 9-2, 3-((3-chloro-2-fluorobenzyl)amino)-6-fluoro-5-(1-(2-fluorophenyl)ethyl)-4H-benzo[e][1,2,4]thiadiazine 1,1-dioxide]
29 | < 100 | CCC(c1ccccc1F)c1cccc2c1NC(NCc1ncccc1F)=NS2(=O)=O (centres unmarked) [Compound 21-1, 5-(1-(2-fluorophenyl)propyl)-3-(((3-fluoropyridin-2-yl)methyl)amino)-4H-benzo[e][1,2,4]thiadiazine 1,1-dioxide]
